Results on 13 molecules are retold here after PubChem BioAssay (NCI).

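Compound exposure: 48 hours, 5 concentrations, 96-well plates. Here, GI50 denotes the concentration required for 50% inhibition of growth. TGI: concentration producing complete growth inhibition.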 Where only a bound is given, the exact number is not on record here.

Among the test systems are CCRF-CEM leukemia; HCC-2998 colon; HL-60(TB) leukemia; LOX IMVI melanoma; M14 melanoma; MALME-3M melanoma; OVCAR-4 ovarian; RPMI-8226 leukemia; SK-MEL-2 melanoma; TK-10 renal.
What all share (assay): growth of human tumour cells (NCI), 48 h

Turning to `COc1ccc(CC(NC(=O)[C@H](C)NC(=O)CN2CCOCC2)C(=O)N[C@@H](Cc2ccccc2)C(=O)[C@@]2(C)CO2)cc1` (stereo partly drawn), the GI50 in the assay on CCRF-CEM leukemia is 0.0859 µM; with HCC-2998 colon it was 0.174 µM; in the assay on HL-60(TB) leukemia it was 0.157 µM; with LOX IMVI melanoma, 0.148 µM; in the assay on M14 melanoma it was 0.284 µM; in the assay with MALME-3M melanoma it was 0.281 µM. Besides, the GI50 is 0.228 µM with OVCAR-4 ovarian, 0.0565 µM with RPMI-8226 leukemia, 0.264 µM in the assay with SK-MEL-2 melanoma and 0.47 µM with TK-10 renal. The TGI in the assay on CCRF-CEM leukemia was more than 100 µM; with HCC-2998 colon it was 0.324 µM; with LOX IMVI melanoma, 0.379 µM; with M14 melanoma it was 2.5 µM; in the assay on MALME-3M melanoma it was 1.41 µM; in the assay with OVCAR-4 ovarian, 0.856 µM. The TGI was more than 100 µM in the assay on RPMI-8226 leukemia, 0.974 µM in the assay with SK-MEL-2 melanoma and 4.93 µM in the assay with TK-10 renal.
`COc1ccc(C(=O)COc2cccc(/C=C3\CSc4ccc(Cl)cc4C3=O)c2)cc1`: the GI50 in the assay with CCRF-CEM leukemia was 1.82 µM; with HCC-2998 colon, 15.5 µM; with HL-60(TB) leukemia it was 2.18 µM; in the assay on LOX IMVI melanoma it was 1.79 µM; in the assay with M14 melanoma it was 13.4 µM; in the assay with MALME-3M melanoma it was 11.6 µM. Moreover, the GI50 with OVCAR-4 ovarian is 11.7 µM; with RPMI-8226 leukemia it was 0.214 µM; in the assay on SK-MEL-2 melanoma, 11.7 µM; in the assay on TK-10 renal, 19.7 µM. Moreover, the TGI in the assay with CCRF-CEM leukemia was found to be 5.41 µM; in the assay on HCC-2998 colon it was 30 µM; in the assay on HL-60(TB) leukemia, 7.21 µM; with LOX IMVI melanoma, 3.48 µM; in the assay with M14 melanoma, 31.6 µM; with MALME-3M melanoma, 32 µM. In addition, the TGI was determined as 28.4 µM with OVCAR-4 ovarian, 3.51 µM in the assay on RPMI-8226 leukemia, 25.1 µM in the assay on SK-MEL-2 melanoma and 41.4 µM in the assay on TK-10 renal.
As for `C/C1=C/C(=O)O[C@@H]2C[C@@H](CC[C@H](C)/C=C\C=C\CC1)O[C@@](OCCc1ccccc1)([C@@H]1CSC(=O)N1)C2`, the GI50 is 0.282 µM in the assay with CCRF-CEM leukemia; 6 µM with HCC-2998 colon; 1.31 µM with HL-60(TB) leukemia; 0.0316 µM in the assay with LOX IMVI melanoma; 0.204 µM with M14 melanoma; 0.0694 µM with MALME-3M melanoma. Further, the GI50 is 0.225 µM with OVCAR-4 ovarian, 3.28 µM in the assay on RPMI-8226 leukemia, 0.917 µM with SK-MEL-2 melanoma and 0.0895 µM in the assay with TK-10 renal. Also, the TGI with CCRF-CEM leukemia was more than 17.5 µM; in the assay on HCC-2998 colon it was more than 17.5 µM; with HL-60(TB) leukemia, more than 17.5 µM; in the assay on M14 melanoma, more than 17.5 µM; with MALME-3M melanoma, 0.943 µM; in the assay on OVCAR-4 ovarian, more than 5.44 µM. For the same molecule, the TGI in the assay with RPMI-8226 leukemia is more than 17.5 µM; in the assay with SK-MEL-2 melanoma it was more than 13.8 µM; in the assay with TK-10 renal, 0.287 µM.
On to `CC(C)(C)[Si](C)(C)OCC1C=CC(n2cnc3c(N)ncnc32)O1` (stereo not drawn), for which the TGI in the assay with CCRF-CEM leukemia was 39.8 µM; with HCC-2998 colon it was more than 100 µM; with HL-60(TB) leukemia, 40.3 µM; in the assay with LOX IMVI melanoma, more than 64 µM; in the assay with M14 melanoma, 66.9 µM; with MALME-3M melanoma, more than 100 µM. Besides, the TGI was more than 100 µM in the assay on OVCAR-4 ovarian, 58.3 µM with RPMI-8226 leukemia, more than 100 µM in the assay with SK-MEL-2 melanoma and more than 100 µM in the assay on TK-10 renal.
Turning to `C(=C\c1nccc2c1[nH]c1ccccc12)/c1ccccc1`, the GI50 with CCRF-CEM leukemia is 2.1 µM; in the assay on HCC-2998 colon, 2.96 µM; in the assay with HL-60(TB) leukemia, 2.07 µM; in the assay with LOX IMVI melanoma it was 2.99 µM; in the assay with M14 melanoma, 2.91 µM; with MALME-3M melanoma, 4.5 µM. In addition, the GI50 with OVCAR-4 ovarian is 3.18 µM; with RPMI-8226 leukemia, 1.07 µM; with SK-MEL-2 melanoma it was 5.82 µM; in the assay with TK-10 renal, 6.58 µM. Further, the TGI in the assay on CCRF-CEM leukemia is 6.03 µM; in the assay on HCC-2998 colon, 9.43 µM; with HL-60(TB) leukemia it was 5.55 µM; in the assay on LOX IMVI melanoma it was 12.2 µM; in the assay with M14 melanoma, more than 100 µM; in the assay on MALME-3M melanoma, 27.7 µM. Further, the TGI with OVCAR-4 ovarian is more than 100 µM; with RPMI-8226 leukemia, 3.92 µM; in the assay with SK-MEL-2 melanoma, 39.7 µM; with TK-10 renal it was 25.5 µM.
As for `O=c1c2ccccc2nc(-c2ccccc2)n1O`, the TGI with CCRF-CEM leukemia, with HCC-2998 colon, with HL-60(TB) leukemia, with LOX IMVI melanoma, with M14 melanoma and in the assay on MALME-3M melanoma was more than 100 µM in each case. Besides, the TGI in the assay on OVCAR-4 ovarian, with RPMI-8226 leukemia, with SK-MEL-2 melanoma and in the assay with TK-10 renal was more than 100 µM in each case.
Take `COc1cc2cc(Oc3ccc(NC(=O)Nc4ccc(Cl)c(C(F)(F)F)c4)cc3)c(C)nc2cc1OC`: the GI50 was 1.01 µM with CCRF-CEM leukemia; 1.77 µM in the assay with HCC-2998 colon; 1.13 µM in the assay on HL-60(TB) leukemia; 1.22 µM in the assay with LOX IMVI melanoma; 1.25 µM in the assay on M14 melanoma; 1.33 µM in the assay on MALME-3M melanoma. For the same molecule, the GI50 in the assay on OVCAR-4 ovarian is 1.37 µM; in the assay on RPMI-8226 leukemia it was 0.635 µM; in the assay on SK-MEL-2 melanoma it was 0.799 µM; in the assay with TK-10 renal it was 1.32 µM. Besides, the TGI with CCRF-CEM leukemia came to 3.09 µM; in the assay on HCC-2998 colon, 5.48 µM; in the assay with HL-60(TB) leukemia, 3.12 µM; in the assay with LOX IMVI melanoma it was 4.16 µM; in the assay with M14 melanoma, 5.25 µM; in the assay with MALME-3M melanoma, 5.71 µM. In addition, the TGI is 6.1 µM with OVCAR-4 ovarian, 1.65 µM in the assay with RPMI-8226 leukemia, 1.94 µM in the assay on SK-MEL-2 melanoma and 6.19 µM in the assay with TK-10 renal.
With `O=C(O)/C(=C\c1ccccc1Cl)S(=O)(=O)c1ccccc1`, the TGI in the assay with CCRF-CEM leukemia, with HCC-2998 colon, in the assay on HL-60(TB) leukemia, in the assay on LOX IMVI melanoma, with M14 melanoma and with MALME-3M melanoma was more than 100 µM in each case. In addition, the TGI with OVCAR-4 ovarian, in the assay on RPMI-8226 leukemia, in the assay on SK-MEL-2 melanoma and in the assay with TK-10 renal was more than 100 µM throughout.
For `Cc1ccc2c(c1)O/C(=C\c1ccc([N+](=O)[O-])o1)C2=O`, the GI50 was 0.424 µM with CCRF-CEM leukemia; 2.05 µM in the assay on HCC-2998 colon; 1.92 µM in the assay with HL-60(TB) leukemia; 1.47 µM with LOX IMVI melanoma; 1.75 µM in the assay on M14 melanoma; 2.42 µM in the assay on MALME-3M melanoma. Also, the GI50 in the assay on OVCAR-4 ovarian was 1.47 µM; in the assay with RPMI-8226 leukemia, 0.447 µM; in the assay with SK-MEL-2 melanoma it was 1.9 µM; with TK-10 renal, 1.39 µM. The TGI in the assay on CCRF-CEM leukemia was determined as 2.61 µM; with HCC-2998 colon, 4.49 µM; in the assay with HL-60(TB) leukemia, 5.09 µM; in the assay with LOX IMVI melanoma it was 3.1 µM; in the assay with M14 melanoma it was 4.07 µM; in the assay with MALME-3M melanoma it was 4.6 µM. Further, the TGI with OVCAR-4 ovarian was found to be 2.84 µM; with RPMI-8226 leukemia, 2.54 µM; in the assay with SK-MEL-2 melanoma, 3.72 µM; in the assay with TK-10 renal, 2.75 µM.
Consider `C#Cc1cccc(Oc2ccc(NC(=O)CCl)cc2)c1`, for which the GI50 in the assay on CCRF-CEM leukemia was 5.82 µM; in the assay with HCC-2998 colon it was more than 82.5 µM; in the assay with HL-60(TB) leukemia it was 63.4 µM; in the assay on LOX IMVI melanoma, 18.1 µM; with M14 melanoma, 72.8 µM; with MALME-3M melanoma, 37.3 µM. Besides, the GI50 in the assay with OVCAR-4 ovarian was 33.3 µM; in the assay on RPMI-8226 leukemia, more than 82.5 µM; in the assay on SK-MEL-2 melanoma, more than 82.5 µM; in the assay on TK-10 renal it was more than 82.5 µM. Moreover, the TGI in the assay with CCRF-CEM leukemia, in the assay on HCC-2998 colon, in the assay with HL-60(TB) leukemia, in the assay with LOX IMVI melanoma, with M14 melanoma and with MALME-3M melanoma was more than 82.5 µM in each case. Besides, the TGI in the assay on OVCAR-4 ovarian, in the assay with RPMI-8226 leukemia, in the assay on SK-MEL-2 melanoma and with TK-10 renal was more than 82.5 µM in each case.
Take `CC1CCP(=O)(c2ccccc2)CC1` (stereo not drawn): the TGI in the assay on CCRF-CEM leukemia, in the assay on HCC-2998 colon, in the assay on HL-60(TB) leukemia, in the assay on LOX IMVI melanoma, in the assay with M14 melanoma and with MALME-3M melanoma was more than 100 µM each time. Also, the TGI in the assay with OVCAR-4 ovarian, in the assay on RPMI-8226 leukemia, with SK-MEL-2 melanoma and with TK-10 renal was more than 100 µM throughout.
As to `CCOc1ccc2ccc3cccnc3c2n1`, the TGI with CCRF-CEM leukemia, in the assay on HCC-2998 colon, in the assay with HL-60(TB) leukemia, in the assay on LOX IMVI melanoma, with M14 melanoma and with MALME-3M melanoma was more than 100 µM in each case. The TGI in the assay with OVCAR-4 ovarian was more than 100 µM; in the assay on RPMI-8226 leukemia, 62.5 µM; in the assay with SK-MEL-2 melanoma, more than 100 µM; in the assay on TK-10 renal, more than 100 µM.
On to `COC1C(O)C(C)OC(OC2CC3CCC4C(CCC5(C)C(C6=CC(=O)OC6)CCC45O)C3(O)C(OC(C)=O)C2)C1O` (stereo not drawn), for which the TGI in the assay on CCRF-CEM leukemia was more than 100 µM; with HCC-2998 colon, 13 µM; with HL-60(TB) leukemia it was 4.23 µM; with LOX IMVI melanoma it was 4.7 µM; with M14 melanoma, 5.5 µM; in the assay on MALME-3M melanoma, 3.74 µM. Also, the TGI with OVCAR-4 ovarian is 17.1 µM; in the assay with RPMI-8226 leukemia it was 7.55 µM; in the assay on SK-MEL-2 melanoma, 10.1 µM; in the assay with TK-10 renal, 6.8 µM.
